Results taken from patent US9951028B2, “Agricultural chemicals” (REDAG CROP PROTECTION LTD, priority 2013, dated 2018).

Tests used:
Format in all cases: in vivo
[1] = system: Capsella bursa-pastoris, (shepherd's-purse); experiment: Herbicidal efficacy screen, corrected necrosis
Protocol: (§1) Plants were obtained as seeds and were grown to the 2-4 true leaf stage. Plants were grown under laboratory conditions, individually in seed trays. Each plant (in an approximately 3 cm diameter plug) was then detached from the tray for spraying. The compounds were screened at a range of five concentrations, diluted in acetone and Tween™. A carrier only control was also conducted. Treatments were applied directly onto the plants, using a potter tower, at a specified application rate. One plant of each species was sprayed using a potter tower. The 3 different types of plants were placed on a 10 cm diameter platform directly beneath the potter sprayer and sprayed simultaneously. The growth of the plants and any Phytotoxicity effects were then assessed at intervals over 21 days, according to EPPO guideline PP1/135. In the tables below C represents a percentage increase in necrosis relative to the control of 0.1-50; B represents a percentage inhibition of 50-80; and A represents a percentage inhibition of 80-100. Certain compounds of the invention were screened for herbicidal efficacy against target plants: Amaranthus retroflexus (redroot pigweed), Abutilon theophrasti (China Jute): Capsella bursa-pastoris, (shepherd's-purse) Echinochloa crus-galli, Hordeum vulgare (Barley),

[2] = system: Abutilon theophrasti (China Jute); experiment: Herbicidal efficacy screen, corrected necrosis
Protocol: as §1

[3] = system: Amaranthus retroflexus (redroot pigweed); experiment: Herbicidal efficacy screen, corrected necrosis
Protocol: as §1

[4] = system: white mustard Sinapsis alba; experiment: Herbicidal efficacy screen, potter tower spray, necrosis assessed
Protocol: (§2) Compounds 22, 23 and 24 were screened for herbicidal efficacy against target plants: garden cress, Lepidium sativum, common chickweed, Stellaria media, and white mustard […] alba Plants were obtained as seeds and were grown to the 2-4 true leaf stage. Plants were grown under laboratory conditions, individually in seed trays. Each plant (in an approximately 3 cm diameter plug) was then detached from the tray for spraying. The compounds were screened at a range of five concentrations, diluted in acetone and TweenTM. A carrier only control was also conducted. Treatments were applied directly onto the plants, using a potter tower, at a specified application rate. One plant of each species was sprayed using a potter tower. The 3 different types of plants were placed on a 10 cm diameter platform directly beneath the potter sprayer and sprayed simultaneously. The growth of the plants and any Phytotoxicity effects were then assessed at intervals over 21 days, according to EPPO guideline PP1/135. Five replicas were performed for each treatment, for each species. In the tables below C represents a percentage increase in necrosis relative to the control of 0.1-50; B represents a percentage inhibition of 50-80; and A represents a percentage inhibition of 80-100.

[5] = system: garden cress, Lepidium sativum; experiment: as above; details: 12.5 g/ha
Protocol: as §2

[6] = 6.25 g/ha, day 1 post application
[7] = 6.25 g/ha, day 7 post application
[8] = 12.5 g/ha, day 1 post application
[9] = 12.5 g/ha, day 7 post application
[10] = 25 g/ha, day 1 post application
[11] = 25 g/ha, day 7 post application
[12] = 50 g/ha, day 1 post application
[13] = 50 g/ha, day 7 post application
[14] = 100 g/ha, day 1 post application
[15] = 100 g/ha, day 7 post application

For `CC(C)N(C)S(=O)(=O)/N=C/c1cc(-n2c(=O)cc(C(F)(F)F)n(C)c2=O)c(F)cc1Cl` [Compound 22, 1-[4-Chloro-2-fluoro-5-[(E)-(isopropyl(methyl)sulfamoyl)iminomethyl]phenyl]-3-methyl-2,6-dioxo-4-(trifluoromethyl)pyrimidine], the “Average of corrected necrosis” value [1, 6] was 0%, the “Average of corrected necrosis” value [1, 7] was “A (A represents a percentage inhibition of 80-100)” and the “Average of corrected necrosis” value [1, 8] was “C (C represents a percentage increase in necrosis relative to the control of 0.1-50)”. For the same compound, the “Average of corrected necrosis” value [1, 9] was “A (A represents a percentage inhibition of 80-100)”, the “Average of corrected necrosis” value [1, 10] was “C (C represents a percentage increase in necrosis relative to the control of 0.1-50)” and the “Average of corrected necrosis” value [1, 11] was “A (A represents a percentage inhibition of 80-100)”. The “Average of corrected necrosis” value [1, 12] was 0%, the “Average of corrected necrosis” value [1, 13] was “A (A represents a percentage inhibition of 80-100)” and the “Average of corrected necrosis” value [1, 14] was “C (C represents a percentage increase in necrosis relative to the control of 0.1-50)”. The “Average of corrected necrosis” value [1, 15] was “A (A represents a percentage inhibition of 80-100)”, the “Average of corrected necrosis” value [2, 6] was “C (C represents a percentage increase in necrosis relative to the control of 0.1-50)” and the “Average of corrected necrosis” value [2, 7] was “A (A represents a percentage inhibition of 80-100)”. The “Average of corrected necrosis” value [2, 8] was “C (C represents a percentage increase in necrosis relative to the control of 0.1-50)”, the “Average of corrected necrosis” value [2, 9] was “A (A represents a percentage inhibition of 80-100)” and the “Average of corrected necrosis” value [2, 10] was “C (C represents a percentage increase in necrosis relative to the control of 0.1-50)”. For the same compound, the “Average of corrected necrosis” value [2, 11] was “A (A represents a percentage inhibition of 80-100)”, the “Average of corrected necrosis” value [2, 12] was “C (C represents a percentage increase in necrosis relative to the control of 0.1-50)” and the “Average of corrected necrosis” value [2, 13] was “A (A represents a percentage inhibition of 80-100)”. For the same compound, the “Average of corrected necrosis” value [2, 14] was “C (C represents a percentage increase in necrosis relative to the control of 0.1-50)”, the “Average of corrected necrosis” value [2, 15] was “A (A represents a percentage inhibition of 80-100)” and the “Average of corrected necrosis” value [3, 6] was “C (C represents a percentage increase in necrosis relative to the control of 0.1-50)”. The “Average of corrected necrosis” value [3, 7] was “A (A represents a percentage inhibition of 80-100)”, the “Average of corrected necrosis” value [3, 8] was “C (C represents a percentage increase in necrosis relative to the control of 0.1-50)” and the “Average of corrected necrosis” value [3, 9] was “A (A represents a percentage inhibition of 80-100)”. For the same compound, the “Average of corrected necrosis” value [3, 10] was “C (C represents a percentage increase in necrosis relative to the control of 0.1-50)”, the “Average of corrected necrosis” value [3, 11] was “A (A represents a percentage inhibition of 80-100)” and the “Average of corrected necrosis” value [3, 12] was “C (C represents a percentage increase in necrosis relative to the control of 0.1-50)”. For the same compound, the “Average of corrected necrosis” value [3, 13] was “A (A represents a percentage inhibition of 80-100)”, the “Average of corrected necrosis” value [3, 14] was “C (C represents a percentage increase in necrosis relative to the control of 0.1-50)” and the “Average of corrected necrosis” value [3, 15] was “A (A represents a percentage inhibition of 80-100)”. For the same compound, the Average of necrosis [4, 8] was “C (C represents a percentage increase in necrosis relative to the control of 0.1-50)”, the Average of necrosis ([4]; 12.5 g/ha, day 2 post application) was “C (C represents a percentage increase in necrosis relative to the control of 0.1-50)” and the Average of necrosis ([4]; 12.5 g/ha, day 3 post application) was “C (C represents a percentage increase in necrosis relative to the control of 0.1-50)”. For the same compound, the Average of necrosis ([4]; 12.5 g/ha, day 4 post application) was “C (C represents a percentage increase in necrosis relative to the control of 0.1-50)”, the Average of necrosis ([4]; 12.5 g/ha, day 5 post application) was “C (C represents a percentage increase in necrosis relative to the control of 0.1-50)” and the Average of necrosis [4, 9] was “C (C represents a percentage increase in necrosis relative to the control of 0.1-50)”. The Average of necrosis ([4]; 12.5 g/ha, day 10 post application) was “B (B represents a percentage inhibition of 50-80)”, the Average of necrosis [4, 10] was “C (C represents a percentage increase in necrosis relative to the control of 0.1-50)” and the Average of necrosis ([4]; 25 g/ha, day 2 post application) was “C (C represents a percentage increase in necrosis relative to the control of 0.1-50)”. For the same compound, the Average of necrosis ([4]; 25 g/ha, day 3 post application) was “C (C represents a percentage increase in necrosis relative to the control of 0.1-50)”, the Average of necrosis ([4]; 25 g/ha, day 4 post application) was “C (C represents a percentage increase in necrosis relative to the control of 0.1-50)” and the Average of necrosis ([4]; 25 g/ha, day 5 post application) was “C (C represents a percentage increase in necrosis relative to the control of 0.1-50)”. The Average of necrosis [4, 11] was “C (C represents a percentage increase in necrosis relative to the control of 0.1-50)”, the Average of necrosis ([4]; 25 g/ha, day 10 post application) was “C (C represents a percentage increase in necrosis relative to the control of 0.1-50)” and the Average of necrosis [4, 12] was “C (C represents a percentage increase in necrosis relative to the control of 0.1-50)”. The Average of necrosis ([4]; 50 g/ha, day 2 post application) was “C (C represents a percentage increase in necrosis relative to the control of 0.1-50)”, the Average of necrosis ([4]; 50 g/ha, day 3 post application) was “C (C represents a percentage increase in necrosis relative to the control of 0.1-50)” and the Average of necrosis ([4]; 50 g/ha, day 4 post application) was “C (C represents a percentage increase in necrosis relative to the control of 0.1-50)”. The Average of necrosis ([4]; 50 g/ha, day 5 post application) was “B (B represents a percentage inhibition of 50-80)”, the Average of necrosis [4, 13] was “B (B represents a percentage inhibition of 50-80)” and the Average of necrosis ([4]; 50 g/ha, day 10 post application) was “B (B represents a percentage inhibition of 50-80)”. For the same compound, the Average of necrosis [4, 14] was “C (C represents a percentage increase in necrosis relative to the control of 0.1-50)”, the Average of necrosis ([4]; 100 g/ha, day 2 post application) was “C (C represents a percentage increase in necrosis relative to the control of 0.1-50)” and the Average of necrosis ([4]; 100 g/ha, day 3 post application) was “C (C represents a percentage increase in necrosis relative to the control of 0.1-50)”. For the same compound, the Average of necrosis ([4]; 100 g/ha, day 4 post application) was “C (C represents a percentage increase in necrosis relative to the control of 0.1-50)”, the Average of necrosis ([4]; 100 g/ha, day 5 post application) was “C (C represents a percentage increase in necrosis relative to the control of 0.1-50)” and the Average of necrosis [4, 15] was “C (C represents a percentage increase in necrosis relative to the control of 0.1-50)”. For the same compound, the Average of necrosis ([4]; 100 g/ha, day 10 post application) was “B (B represents a percentage inhibition of 50-80)”, the Average of necrosis ([4]; 200 g/ha, day 1 post application) was “C (C represents a percentage increase in necrosis relative to the control of 0.1-50)” and the Average of necrosis ([4]; 200 g/ha, day 2 post application) was “C (C represents a percentage increase in necrosis relative to the control of 0.1-50)”. The Average of necrosis ([4]; 200 g/ha, day 3 post application) was “C (C represents a percentage increase in necrosis relative to the control of 0.1-50)”, the Average of necrosis ([4]; 200 g/ha, day 4 post application) was “C (C represents a percentage increase in necrosis relative to the control of 0.1-50)” and the Average of necrosis ([4]; 200 g/ha, day 5 post application) was “C (C represents a percentage increase in necrosis relative to the control of 0.1-50)”. For the same compound, the Average of necrosis ([4]; 200 g/ha, day 7 post application) was “C (C represents a percentage increase in necrosis relative to the control of 0.1-50)”, the Average of necrosis ([4]; 200 g/ha, day 10 post application) was “B (B represents a percentage inhibition of 50-80)” and the Average of necrosis ([5]; day 1 post application) was “C (C represents a percentage increase in necrosis relative to the control of 0.1-50)”. The Average of necrosis ([5]; day 2 post application) was “C (C represents a percentage increase in necrosis relative to the control of 0.1-50)”.
